What all share (format): functional
Assay [1] has as its system Mycobacterium tuberculosis. The assay is described as follows: Antimycobacterial activity against active stage of Mycobacterium tuberculosis H37Ra ATCC 25177 assessed as minimum inhibitory concentration by XTT assay.
In assay [2] the test system is Mycobacterium tuberculosis. The assay can be described thus: Antimycobacterial activity against dormant stage of Mycobacterium tuberculosis H37Ra ATCC 25177 assessed as minimum inhibitory concentration by XTT assay. Background: Formazan colour is commonly taken as a measure of viable cells.
Assay [3] relates to Escherichia coli. The assay can be described thus: Antibacterial activity against Escherichia coli NCIM 2688 measured after 8 hrs.
In assay [4] the test system is Pseudomonas aeruginosa. The assay can be described thus: Antibacterial activity against Pseudomonas aeruginosa NCIM […] measured after 8 hrs.
The subject of assay [5] is Bacillus subtilis. The assay is described as follows: Antibacterial activity against Bacillus subtilis NCIM 2079 measured after 12 hrs.
Assay [6] deals with Staphylococcus aureus. The assay is described as follows: Antibacterial activity against Staphylococcus aureus NCIM 2010 measured after 12 hrs.
Assay [7] deals with Staphylococcus aureus. The assay can be described thus: Antibacterial activity against Staphylococcus aureus by disc diffusion method. (Agar diffusion results depend on both activity and mobility in agar.)
Assay [8] has as its system Bacillus subtilis. The assay can be described thus: Antibacterial activity against Bacillus subtilis by disc diffusion method.
Assay [9] concerns Escherichia coli. The assay is described as follows: Antibacterial activity against Escherichia coli by disc diffusion method.
Assay [10] deals with Pseudomonas aeruginosa. The assay is described as follows: Antibacterial activity against Pseudomonas aeruginosa by disc diffusion method.

≈ marks a conversion by molar mass, not a printed value. Calls of active or inactive are those of the source. The rule behind the calls is not given here.

Regarding `Cc1ccc(Cn2cc(CN3C(=O)C4(C(C#N)=C(N)OC5=C4C(=O)CC(C)(C)C5)c4cc(Br)ccc43)nn2)cc1` (stereo not drawn), the MIC (in general, the lowest concentration found to suppress growth) in [1] is 29.2 µg/mL (≈ 48.8 µM); in assay [2] it was 8.89 µg/mL (≈ 14.8 µM).

With `Cc1cc2c(c(=O)o1)C1(C(=O)N(Cc3cn(Cc4ccc(Cl)cc4)nn3)c3ccccc31)C(C#N)=C(N)O2` (stereo not drawn), the minimal inhibitory concentration (MIC) in assay [1] came to 5.21 µg/mL (≈ 9.89 µM); in assay [2], 4.39 µg/mL (≈ 8.33 µM).

For the molecule `Cc1ccc(Cn2cc(CN3C(=O)C4(C(C#N)=C(N)Oc5cc(C)oc(=O)c54)c4ccccc43)nn2)cc1` (stereo not drawn), the MIC in [1] was found to be 14 µg/mL (≈ 27.6 µM); in [2] it was 7.3 µg/mL (≈ 14.4 µM). In addition, the MIC90 (in general, an inhibitory concentration at the 90% level, which refers to growth in some studies and to a panel of isolates in others) came out at 1.97 µg/mL (≈ 3.89 µM) in assay [3], 3.08 µg/mL (≈ 6.08 µM) in assay [4], 2.85 µg/mL (≈ 5.63 µM) in assay [5] and 4.27 µg/mL (≈ 8.43 µM) in assay [6].

`CC1(C)CC(=O)C2=C(C1)N(c1ccccc1F)C(=O)C21C2=C(Nc3ccccc31)C(=O)CC(C)(C)C2` (stereo not drawn): the MIC result in assay [7] is “inactive”. Moreover, the results for the MIC in assay [8], in assay [9] and in assay [10] were 75 µg/mL (≈ 155 µM), 37.5 µg/mL (≈ 77.4 µM) and 50 µg/mL (≈ 103 µM), respectively.

In the case of `CC1(C)CC(=O)C2=C(C1)N(c1ccccc1S)C(=O)C21C2=C(Nc3ccccc31)C(=O)CC(C)(C)C2` (stereo not drawn), the minimum inhibitory concentration (MIC) in [7] was 225 µg/mL (≈ 451 µM); in [8] it was 2.5 µg/mL (≈ 5.01 µM); in [9], 188 µg/mL (≈ 376 µM); in assay [10] it was 150 µg/mL (≈ 301 µM).

As to `CC1(C)CC(=O)C2=C(C1)OC(N)=C(C#N)C21C(=O)N(Cc2cn(Cc3ccc(Cl)cc3)nn2)c2ccc(Cl)cc21` (stereo not drawn), the MIC in assay [1] was over 50 µg/mL; in [2] it was 8.07 µg/mL (≈ 14 µM). In addition, the MIC90 was 1.78 µg/mL (≈ 3.09 µM) in [3], 5.29 µg/mL (≈ 9.19 µM) in assay [4], 1.14 µg/mL (≈ 1.98 µM) in assay [5] and 3.55 µg/mL (≈ 6.17 µM) in [6].

As for `Cc1cc2c(c(=O)o1)C1(C(=O)N(Cc3cn(Cc4ccc(Cl)cc4)nn3)c3ccc(Cl)cc31)C(C#N)=C(N)O2` (stereo not drawn), the MIC in assay [1] is 5.39 µg/mL (≈ 9.6 µM); in assay [2] it was 4.81 µg/mL (≈ 8.57 µM).

Consider `Cc1cc2c(c(=O)o1)C1(C(=O)N(Cc3cn(Cc4ccc(Cl)cc4)nn3)c3ccc(Br)cc31)C(C#N)=C(N)O2` (stereo not drawn), for which the MIC in assay [1] amounted to 6.63 µg/mL (≈ 10.9 µM); in [2], 6.8 µg/mL (≈ 11.2 µM). Further, the MIC90 in [3] turned out to be 2.75 µg/mL (≈ 4.54 µM); in [4], 2.33 µg/mL (≈ 3.85 µM); in assay [5], 5.27 µg/mL (≈ 8.7 µM); in assay [6] it was 3.86 µg/mL (≈ 6.37 µM).

Regarding `COc1ccccc1N1C(=O)C2(C3=C(Nc4ccccc42)C(=O)CC(C)(C)C3)C2=C1CC(C)(C)CC2=O` (stereo not drawn), the MIC in assay [7] was found to be 75 µg/mL (≈ 151 µM); in [8], 75 µg/mL (≈ 151 µM); in assay [9], 175 µg/mL (≈ 352 µM); in assay [10], 100 µg/mL (≈ 201 µM).

On to `Cc1ccc(Cn2cc(CN3C(=O)C4(C(C#N)=C(N)Oc5cc(C)oc(=O)c54)c4cc(Cl)ccc43)nn2)cc1` (stereo not drawn), for which the values for the MIC in [1] and in assay [2] were over 50 µg/mL and 11.6 µg/mL (≈ 21.4 µM), respectively. Moreover, the MIC90 in assay [3] was determined as 2.65 µg/mL (≈ 4.9 µM); in assay [4] it was 4.88 µg/mL (≈ 9.02 µM); in [5], 7.19 µg/mL (≈ 13.3 µM); in assay [6], 2.41 µg/mL (≈ 4.45 µM).

Take `CC1(C)CC(=O)C2=C(C1)N(c1c(Br)cc(Br)cc1Br)C(=O)C21C2=C(Nc3ccccc31)C(=O)CC(C)(C)C2` (stereo not drawn): the MIC was 100 µg/mL (≈ 142 µM) in assay [7], 62.5 µg/mL (≈ 88.9 µM) in assay [8], 37.5 µg/mL (≈ 53.3 µM) in assay [9] and 50 µg/mL (≈ 71.1 µM) in assay [10].

In the case of `CC1(C)CC(=O)C2=C(C1)OC(N)=C(C#N)C21C(=O)N(Cc2cn(Cc3ccc(Cl)cc3)nn2)c2ccc(Br)cc21` (stereo not drawn), the minimal inhibitory concentration (MIC) was over 50 µg/mL in assay [1] and 10.6 µg/mL (≈ 17.1 µM) in assay [2]. The MIC90 in assay [3] amounted to 2.86 µg/mL (≈ 4.61 µM); in assay [4] it was 1.57 µg/mL (≈ 2.53 µM); in assay [5] it was 3.18 µg/mL (≈ 5.13 µM); in [6], 1.09 µg/mL (≈ 1.76 µM).

Take `NC[C@H]1O[C@H](O[C@H]2[C@H](O)[C@@H](O[C@H]3O[C@H](CO)[C@@H](O)[C@H](N)[C@H]3O)[C@H](N)C[C@@H]2N)[C@H](O)[C@@H](O)[C@@H]1O` [KANAMYCIN]: the MIC90 in assay [3] was 1.62 µg/mL (≈ 3.34 µM); in assay [4], 0.49 µg/mL (≈ 1.01 µM); in assay [5] it was 1.35 µg/mL (≈ 2.79 µM); in assay [6] it was over 30 µg/mL.

Turning to `CO[C@H]1/C=C/O[C@@]2(C)Oc3c(C)c(O)c4c(O)c(c(/C=N/N5CCN(C)CC5)c(O)c4c3C2=O)NC(=O)/C(C)=C\C=C\[C@H](C)[C@H](O)[C@@H](C)[C@@H](O)[C@@H](C)[C@H](OC(C)=O)[C@@H]1C` [RIFAMPIN], the MIC in assay [1] was 0.51 µg/mL (≈ 0.62 µM); in assay [2], 0.75 µg/mL (≈ 0.911 µM).

Source of the values: ChEMBL document CHEMBL5226286, “The application of isatin-based multicomponent-reactions in the quest for new bioactive and druglike molecules” (Eur J Med Chem, 2021).
